Experimental data taken from US10081561B2, “Reduction of hydrogen sulfide and/or malodor gassing from water via the addition of peroxyacetic acid/hydrogen peroxide product” (priority 2013, dated 2018).

System: aerobe population and SRP population
Assay: PAA demand study, assumed microbial kill efficiency (FIG. 2)
Type: cell-based
Details: assumed for FIG. 2
Text: Referring now to FIG. 2 there is shown a graph of one such example. If we assume that in a given system the aerobe population is 1,000,000 per mL and the SRP population is 100,000 per mL and we perform a PAA demand study to understand the microbial kill efficiency we can then determine how much PAA to add to minimize the SRP population without killing so many aerobes that it is detrimental to the waste water plant. This graph assumes that reduction after treatment may be something like: 50% reduction with a 20 ppm PAA treatment, 90% reduction with a 40 ppm treatment, and 99% reduction with a 60 ppm treatment. The goal of treatment would be to suppress the SPR population as much as possible while still allowing a sufficient number of aerobes to survive and move into the waste process.

Question: How did the reduction after treatment (20 ppm PAA treatment) turn out when `CC(=O)OO` [PAA, peroxyacetic acid] was run?
Answer: ~50%

Question: And the reduction after treatment (40 ppm treatment)?
Answer: ~90%

Question: What about the reduction after treatment (60 ppm treatment) of the same molecule?
Answer: ~99%
